{"source": "paper PMC8333425", "about": "“Discovery of a dual Ras and ARF6 inhibitor from a GPCR endocytosis screen” (Nature Communications, 2021)", "test_in_all_cases": "KINOMEscan kinase binding assay", "key": {"[1]": {"target": "T1, 384 kinases from the human genome (Homo sapiens, UniProt P06239)", "T1 construct": "purchased Eurofin/DiscoverX", "T1 sequence (P06239 whole entry)": "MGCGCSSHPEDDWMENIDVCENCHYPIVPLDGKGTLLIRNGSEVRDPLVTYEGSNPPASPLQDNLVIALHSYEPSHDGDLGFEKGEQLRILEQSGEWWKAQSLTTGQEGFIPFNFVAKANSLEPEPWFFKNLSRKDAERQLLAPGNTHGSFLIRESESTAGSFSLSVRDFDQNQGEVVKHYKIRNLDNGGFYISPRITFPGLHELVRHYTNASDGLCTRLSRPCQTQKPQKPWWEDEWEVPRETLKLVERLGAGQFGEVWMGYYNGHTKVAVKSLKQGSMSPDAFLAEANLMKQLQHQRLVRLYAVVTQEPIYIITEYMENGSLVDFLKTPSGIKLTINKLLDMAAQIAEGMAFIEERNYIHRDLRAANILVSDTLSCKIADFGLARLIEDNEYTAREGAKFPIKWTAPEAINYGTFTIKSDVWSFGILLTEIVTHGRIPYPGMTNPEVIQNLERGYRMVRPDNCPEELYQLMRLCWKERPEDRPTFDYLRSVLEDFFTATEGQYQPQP", "conditions": "kinase LCK (Entrez LCK)", "in_short": "(§1)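 A panel of 384 human kinases was profiled by KINOMEscan binding in the presence of 10 µM compound. Kinase–ligand binding was given as percent of DMSO control, averaged from duplicates in a single run, with an S(10) selectivity score.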"}, "[2]": {"target": "T2, 384 kinases from the human genome (Homo sapiens, UniProt Q9P289)", "T2 construct": "purchased Eurofin/DiscoverX", "conditions": "kinase MST4 (Entrez MST4)", "in_short": "as §1"}, "[3]": {"target": "T3, 384 kinases from the human genome (Homo sapiens, UniProt P53667)", "T3 construct": "purchased Eurofin/DiscoverX", "T3 sequence (P53667 whole entry)": "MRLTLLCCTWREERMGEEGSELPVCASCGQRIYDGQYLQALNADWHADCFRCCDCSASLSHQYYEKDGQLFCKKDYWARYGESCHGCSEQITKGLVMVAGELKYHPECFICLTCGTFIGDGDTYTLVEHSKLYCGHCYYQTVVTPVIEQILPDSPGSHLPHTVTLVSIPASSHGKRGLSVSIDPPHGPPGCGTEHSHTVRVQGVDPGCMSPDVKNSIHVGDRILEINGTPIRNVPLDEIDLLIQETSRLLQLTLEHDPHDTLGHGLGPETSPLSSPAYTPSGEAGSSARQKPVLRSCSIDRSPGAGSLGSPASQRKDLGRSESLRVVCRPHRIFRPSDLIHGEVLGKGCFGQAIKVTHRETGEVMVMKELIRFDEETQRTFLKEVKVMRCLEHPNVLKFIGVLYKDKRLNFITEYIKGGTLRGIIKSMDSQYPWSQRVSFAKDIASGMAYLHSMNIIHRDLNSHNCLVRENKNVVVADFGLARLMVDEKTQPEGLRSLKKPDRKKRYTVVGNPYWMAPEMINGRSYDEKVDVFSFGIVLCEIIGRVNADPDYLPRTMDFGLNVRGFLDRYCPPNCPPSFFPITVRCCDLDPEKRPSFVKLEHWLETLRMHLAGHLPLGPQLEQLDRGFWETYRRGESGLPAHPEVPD", "conditions": "kinase LIMK1 (Entrez LIMK1)", "in_short": "as §1"}, "[4]": {"target": "T4, 384 kinases from the human genome (Homo sapiens, UniProt P78362)", "T4 construct": "purchased Eurofin/DiscoverX", "T4 sequence (P78362 whole entry)": "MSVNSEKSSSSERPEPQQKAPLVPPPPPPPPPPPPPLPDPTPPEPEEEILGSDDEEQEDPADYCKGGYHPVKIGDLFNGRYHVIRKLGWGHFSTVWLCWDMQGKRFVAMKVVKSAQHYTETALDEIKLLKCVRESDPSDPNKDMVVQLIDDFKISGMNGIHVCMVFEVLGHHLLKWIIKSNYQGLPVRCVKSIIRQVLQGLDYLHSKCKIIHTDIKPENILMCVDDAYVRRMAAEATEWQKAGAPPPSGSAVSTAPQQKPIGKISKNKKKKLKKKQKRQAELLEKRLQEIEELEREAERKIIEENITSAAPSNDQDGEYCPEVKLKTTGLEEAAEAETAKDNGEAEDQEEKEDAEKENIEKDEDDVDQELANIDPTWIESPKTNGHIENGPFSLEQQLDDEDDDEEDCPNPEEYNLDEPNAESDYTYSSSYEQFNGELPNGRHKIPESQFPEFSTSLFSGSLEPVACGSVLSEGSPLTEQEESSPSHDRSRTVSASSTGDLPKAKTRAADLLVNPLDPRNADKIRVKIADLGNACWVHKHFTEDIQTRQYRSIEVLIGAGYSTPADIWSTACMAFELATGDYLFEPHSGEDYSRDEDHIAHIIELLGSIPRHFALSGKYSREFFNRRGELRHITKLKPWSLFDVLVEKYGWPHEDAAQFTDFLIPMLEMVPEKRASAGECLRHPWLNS", "conditions": "kinase SRPK2 (Entrez SRPK2)", "in_short": "as §1"}, "[5]": {"target": "T5, 384 kinases from the human genome (Homo sapiens, UniProt Q9BX84)", "T5 construct": "purchased Eurofin/DiscoverX", "conditions": "kinase TRPM6 (Entrez TRPM6)", "in_short": "as §1"}, "[6]": {"target": "T6, 384 kinases from the human genome (Homo sapiens, UniProt Q9UQB9)", "T6 construct": "purchased Eurofin/DiscoverX", "conditions": "kinase AURKC (Entrez AURKC)", "in_short": "as §1"}, "[7]": {"target": "T7, 384 kinases from the human genome (Homo sapiens, UniProt Q13976)", "T7 construct": "purchased Eurofin/DiscoverX", "conditions": "kinase PRKG1 (Entrez PRKG1)", "in_short": "as §1"}, "[8]": {"target": "T8, 384 kinases from the human genome (Homo sapiens, UniProt Q15759)", "T8 construct": "purchased Eurofin/DiscoverX", "T8 sequence (Q15759 whole entry)": "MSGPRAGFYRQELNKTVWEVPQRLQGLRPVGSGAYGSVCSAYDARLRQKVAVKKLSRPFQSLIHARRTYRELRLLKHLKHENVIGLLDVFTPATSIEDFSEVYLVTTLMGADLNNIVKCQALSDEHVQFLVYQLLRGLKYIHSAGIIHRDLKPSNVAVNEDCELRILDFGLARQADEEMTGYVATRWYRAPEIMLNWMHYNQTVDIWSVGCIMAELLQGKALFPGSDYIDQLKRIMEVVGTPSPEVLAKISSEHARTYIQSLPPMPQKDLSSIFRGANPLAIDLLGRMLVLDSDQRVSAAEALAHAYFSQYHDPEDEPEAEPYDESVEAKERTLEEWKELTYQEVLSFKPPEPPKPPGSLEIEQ", "conditions": "kinase p38-beta (Entrez MAPK11)", "in_short": "as §1"}, "[9]": {"target": "T9, 384 kinases from the human genome (Homo sapiens, UniProt P06241)", "T9 construct": "purchased Eurofin/DiscoverX", "T9 sequence (P06241 whole entry)": "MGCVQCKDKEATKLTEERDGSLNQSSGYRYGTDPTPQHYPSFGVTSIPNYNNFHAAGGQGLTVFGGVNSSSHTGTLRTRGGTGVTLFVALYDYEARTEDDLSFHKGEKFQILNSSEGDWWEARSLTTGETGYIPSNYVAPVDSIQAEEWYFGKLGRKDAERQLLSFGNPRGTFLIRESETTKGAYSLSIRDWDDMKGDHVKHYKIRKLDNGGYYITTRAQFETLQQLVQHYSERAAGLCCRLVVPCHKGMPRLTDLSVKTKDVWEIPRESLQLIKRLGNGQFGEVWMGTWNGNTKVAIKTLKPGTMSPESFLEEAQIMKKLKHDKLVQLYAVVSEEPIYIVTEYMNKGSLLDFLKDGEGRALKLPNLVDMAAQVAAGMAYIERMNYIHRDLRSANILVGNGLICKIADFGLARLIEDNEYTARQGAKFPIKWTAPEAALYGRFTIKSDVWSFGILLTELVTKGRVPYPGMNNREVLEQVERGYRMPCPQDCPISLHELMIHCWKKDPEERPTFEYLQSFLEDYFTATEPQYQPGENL", "conditions": "kinase FYN (Entrez FYN)", "in_short": "as §1"}, "[10]": {"target": "T10, 384 kinases from the human genome (Homo sapiens, UniProt Q9NRH2)", "T10 construct": "purchased Eurofin/DiscoverX", "conditions": "kinase SNRK (Entrez SNRK)", "in_short": "as §1"}, "[11]": {"target": "T11, 384 kinases from the human genome (Homo sapiens, UniProt P24723)", "T11 construct": "purchased Eurofin/DiscoverX", "T11 sequence (P24723 whole entry)": "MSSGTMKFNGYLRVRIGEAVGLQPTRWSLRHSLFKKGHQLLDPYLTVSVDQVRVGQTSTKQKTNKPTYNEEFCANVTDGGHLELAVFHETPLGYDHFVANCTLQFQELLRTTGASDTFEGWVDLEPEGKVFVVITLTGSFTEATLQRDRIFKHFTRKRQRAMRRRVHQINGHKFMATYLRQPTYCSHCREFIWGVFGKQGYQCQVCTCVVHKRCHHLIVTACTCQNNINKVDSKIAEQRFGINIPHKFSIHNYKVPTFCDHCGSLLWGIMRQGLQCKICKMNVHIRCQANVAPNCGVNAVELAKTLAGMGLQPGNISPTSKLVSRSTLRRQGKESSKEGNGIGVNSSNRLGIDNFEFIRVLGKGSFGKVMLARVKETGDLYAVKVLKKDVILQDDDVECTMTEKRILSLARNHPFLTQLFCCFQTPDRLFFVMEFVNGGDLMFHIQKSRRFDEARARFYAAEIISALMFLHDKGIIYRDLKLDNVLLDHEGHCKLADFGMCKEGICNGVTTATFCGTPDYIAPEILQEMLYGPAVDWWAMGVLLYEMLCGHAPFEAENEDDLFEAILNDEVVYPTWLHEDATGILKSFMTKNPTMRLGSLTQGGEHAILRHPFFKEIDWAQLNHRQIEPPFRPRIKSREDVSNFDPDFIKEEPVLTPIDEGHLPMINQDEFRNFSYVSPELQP", "conditions": "kinase PRKCH (Entrez PRKCH)", "in_short": "as §1"}, "[12]": {"target": "T12, 384 kinases from the human genome (Homo sapiens, UniProt P36894)", "T12 construct": "purchased Eurofin/DiscoverX", "conditions": "kinase BMPR1A (Entrez BMPR1A)", "in_short": "as §1"}, "[13]": {"target": "T13, 384 kinases from the human genome (Homo sapiens, UniProt Q13237)", "T13 construct": "purchased Eurofin/DiscoverX", "conditions": "kinase PRKG2 (Entrez PRKG2)", "in_short": "as §1"}, "[14]": {"target": "T14, 384 kinases from the human genome (Homo sapiens, UniProt P57059)", "T14 construct": "purchased Eurofin/DiscoverX", "conditions": "kinase SIK (Entrez SIK1)", "in_short": "as §1"}, "[15]": {"target": "T15, 384 kinases from the human genome (Homo sapiens, UniProt O75747)", "T15 construct": "purchased Eurofin/DiscoverX", "T15 sequence (O75747 whole entry)": "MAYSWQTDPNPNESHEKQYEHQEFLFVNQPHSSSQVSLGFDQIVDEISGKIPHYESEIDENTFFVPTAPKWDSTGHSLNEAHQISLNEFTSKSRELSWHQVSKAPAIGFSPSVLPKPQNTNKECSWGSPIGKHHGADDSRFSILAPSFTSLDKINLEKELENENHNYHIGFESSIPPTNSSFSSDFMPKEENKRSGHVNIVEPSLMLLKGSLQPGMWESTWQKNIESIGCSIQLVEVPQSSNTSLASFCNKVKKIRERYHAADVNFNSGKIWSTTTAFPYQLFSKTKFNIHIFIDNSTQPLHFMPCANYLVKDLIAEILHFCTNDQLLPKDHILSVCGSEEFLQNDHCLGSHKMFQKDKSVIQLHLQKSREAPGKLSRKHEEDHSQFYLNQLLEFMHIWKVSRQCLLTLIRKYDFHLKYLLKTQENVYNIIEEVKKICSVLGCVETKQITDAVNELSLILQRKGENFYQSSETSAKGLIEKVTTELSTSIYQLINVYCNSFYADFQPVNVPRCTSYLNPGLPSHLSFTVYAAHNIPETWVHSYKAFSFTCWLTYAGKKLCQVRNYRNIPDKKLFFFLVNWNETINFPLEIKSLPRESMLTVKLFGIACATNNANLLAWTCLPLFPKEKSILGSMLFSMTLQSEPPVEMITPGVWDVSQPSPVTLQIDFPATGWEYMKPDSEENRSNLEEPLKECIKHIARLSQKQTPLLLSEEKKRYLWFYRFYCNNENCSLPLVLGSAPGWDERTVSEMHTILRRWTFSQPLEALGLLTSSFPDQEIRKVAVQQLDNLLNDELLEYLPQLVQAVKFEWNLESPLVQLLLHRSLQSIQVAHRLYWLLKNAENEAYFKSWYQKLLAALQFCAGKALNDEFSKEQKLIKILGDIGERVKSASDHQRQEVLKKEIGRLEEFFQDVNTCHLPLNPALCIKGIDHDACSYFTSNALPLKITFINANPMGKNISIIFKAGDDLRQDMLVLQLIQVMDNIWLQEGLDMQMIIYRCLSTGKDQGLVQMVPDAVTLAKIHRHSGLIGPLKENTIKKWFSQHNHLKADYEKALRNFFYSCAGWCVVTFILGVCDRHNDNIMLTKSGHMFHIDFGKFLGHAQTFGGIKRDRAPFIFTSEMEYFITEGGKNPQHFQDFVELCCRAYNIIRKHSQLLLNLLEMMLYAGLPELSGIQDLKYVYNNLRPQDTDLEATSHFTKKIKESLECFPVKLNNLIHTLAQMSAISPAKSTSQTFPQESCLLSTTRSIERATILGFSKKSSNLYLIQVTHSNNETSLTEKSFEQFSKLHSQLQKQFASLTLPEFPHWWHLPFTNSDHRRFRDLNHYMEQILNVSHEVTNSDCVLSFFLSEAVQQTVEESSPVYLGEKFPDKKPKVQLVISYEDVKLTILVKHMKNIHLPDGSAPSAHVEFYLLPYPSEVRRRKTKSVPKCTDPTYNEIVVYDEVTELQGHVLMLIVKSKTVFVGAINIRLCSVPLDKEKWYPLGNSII", "conditions": "kinase PIK3C2G (Entrez PIK3C2G)", "in_short": "as §1"}, "[16]": {"target": "T16, 384 kinases from the human genome (Homo sapiens, UniProt O15146)", "T16 construct": "purchased Eurofin/DiscoverX", "conditions": "kinase MUSK (Entrez MUSK)", "in_short": "as §1"}}, "data": [{"compound": "CC(C)C(=O)N1CCN(c2ccc(NC(=O)c3cc4ccccc4o3)cc2Cl)CC1", "note": "[Compound 21]", "values": [{"measurement": "Percent Control", "setting": "[1]", "value": 97, "unit": "%"}, {"measurement": "Percent Control", "setting": "[2]", "value": 100, "unit": "%"}, {"measurement": "Percent Control", "setting": "[3]", "value": 79, "unit": "%"}, {"measurement": "Percent Control", "setting": "[4]", "value": 80, "unit": "%"}, {"measurement": "Percent Control", "setting": "[5]", "value": 81, "unit": "%"}, {"measurement": "Percent Control", "setting": "[6]", "value": 87, "unit": "%"}, {"measurement": "Percent Control", "setting": "[7]", "value": 96, "unit": "%"}, {"measurement": "Percent Control", "setting": "[8]", "value": 80, "unit": "%"}, {"measurement": "Percent Control", "setting": "[9]", "value": 67, "unit": "%"}, {"measurement": "Percent Control", "setting": "[10]", "value": 78, "unit": "%"}, {"measurement": "Percent Control", "setting": "[11]", "value": 92, "unit": "%"}, {"measurement": "Percent Control", "setting": "[12]", "value": 79, "unit": "%"}, {"measurement": "Percent Control", "setting": "[13]", "value": 92, "unit": "%"}, {"measurement": "Percent Control", "setting": "[14]", "value": 94, "unit": "%"}, {"measurement": "Percent Control", "setting": "[15]", "value": 100, "unit": "%"}, {"measurement": "Percent Control", "setting": "[16]", "value": 96, "unit": "%"}]}]}
